The results in this text go back to patent US20140005269A1, “POLYMERIC MATRIX OF POLYMER-LIPID NANOPARTICLES AS A PHARMACEUTICAL DOSAGE FORM” (priority 2010, published 2014).

This series is described as follows: In vitro drug release, USP 32 apparatus II dissolution. In kind it is physicochemical. To be noted: pH 6.8 (standard buffer KH2PO4/NaOH). How it is done:
Drug release was assessed using a USP 32 apparatus II dissolution system (Erweka DT 700, Erweka GmbH, Heusenstamm, Germany). Temperature and stirring rate was at 37±0.5° C. and 50 rpm respectively while the dissolution media was 0.1N HCl, buffers pH 1.5 and 4.5. Samples were withdrawn at predetermined intervals and replaced with the same volume of fresh medium, and the quantity of L-dopa released was quantified using UV spectroscopy. In vitro drug release studies were also undertaken for E3 matrices formulated from IPBs in varying normalities of acetic acid in buffer pH 1.5 (standard buffer KCl/HCl), pH 4.5 (0.025M KH2PO4/H2PO4) and pH 6.8 (standard buffer KH2PO4/NaOH) was employed to observe the behavior of the matrices and not for drug release as the model drug L-dopa was unstable at such pH values.
The incorporation of polymer-lipid nanoparticles into the IPB was undertaken as described earlier via direct compression. However, the L-dopa-loaded polymer-lipid nanoparticles was incorporated instead of L-dopa alone while the in vitro drug release was assessed as described earlier.

With `N[C@@H](Cc1ccc(O)c(O)c1)C(=O)O` [L-dopa, 3-(3,4-dihydroxyphenyl)-L-alanine], the “stability of the model drug in dissolution medium” value is given as “unstable”.
